Counter-ions that a name gives are not always drawn. Like-named read-outs stand apart in the source and are kept apart here.
Assays:
[1] = system: HeLa cells; experiment: growth of HeLa cells in culture, 96-well plate assay; assay type: cell-based, human; conditions: for A580, % of no addition / Growth, % of control: HeLa; for Growth, % of control: no source
[2] = target: T1, NADH oxidase (Homo sapiens, UniProt Q16206); experiment: NADH oxidase assay, genestein interactions (data not shown); assay type: biochemical
T1 sequence (Q16206 1-610): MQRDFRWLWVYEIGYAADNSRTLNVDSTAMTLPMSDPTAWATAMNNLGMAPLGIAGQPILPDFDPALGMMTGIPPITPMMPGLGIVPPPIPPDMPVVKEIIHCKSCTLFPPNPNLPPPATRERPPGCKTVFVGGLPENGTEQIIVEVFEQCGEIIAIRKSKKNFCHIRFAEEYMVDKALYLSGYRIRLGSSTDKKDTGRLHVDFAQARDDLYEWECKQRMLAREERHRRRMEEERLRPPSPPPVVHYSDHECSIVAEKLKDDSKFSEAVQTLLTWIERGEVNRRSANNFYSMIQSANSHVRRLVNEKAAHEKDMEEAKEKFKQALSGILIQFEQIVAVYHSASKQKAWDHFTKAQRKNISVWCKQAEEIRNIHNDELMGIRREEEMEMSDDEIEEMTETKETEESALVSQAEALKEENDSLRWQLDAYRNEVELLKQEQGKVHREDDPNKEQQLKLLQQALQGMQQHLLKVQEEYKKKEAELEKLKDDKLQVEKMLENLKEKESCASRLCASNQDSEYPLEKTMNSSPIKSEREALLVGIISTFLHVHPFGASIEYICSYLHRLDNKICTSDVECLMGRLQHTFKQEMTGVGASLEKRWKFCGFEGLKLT
Text: (§1) NADH oxidase activity may be monitored and measured by virtue of the decrease in absorbance at 340 nm wavelength. A millimolar extinction coefficient of 6.22 for NADH was used to calculate rates of NADH oxidation. Additional tests are such as those described by Morre, 1994, Bioenerg. Biomemb. 26:421, and Chueh et al., 1997, J. Biol. Chem. 272:11221, which are incorporated by reference in their entireties.

[3] = system: 4T1 cells; experiment: growth of 4T1 cells over 48 h, 96-well plate assay; assay type: cell-based, mouse; conditions: 4T1, 48 h
Method: (§2) HeLa (ATCC CCL2) cells were grown in 150 cm^2 flasks in Minimal Essential Medium (Gibco), pH 7.4, at 37° C. with 10% bovine calf serum (heat inactivated, plus 50 mg/l gentamicin sulfate (Sigma). A mouse mammary tumor subpopulation line 4T1 arising from a BALB/cfC3H mouse (Miller et al., 1981, Brit. J. Cancer 56:561 and Miller et al., 1990, Invasion Metastasis 10:101) was grown in DME 10, Dulbecco's modified Eagle's medium supplemented with 5% fetal calf serum, 5% newborn calf serum, 1 mM mixed non-essential amino acids, 2 mM L-glutamine, penicillin (100 units/ml), and streptomycin (100 μg/ml).
Cells were quantitated using a standard cytotoxicity assay (Matthews & Neale, 1987, In Lymphokines and Interferons. A Practical Approach. Clemens, M. J. et al., eds. IRL Press, Oxford, p. 221).

[4] = target: T2, NADH oxidase (tNOX) of 4T1 cells (Mus musculus, UniProt Q8R0Z2); experiment: inhibition of NADH oxidase (tNOX) activity of 4T1 cells; assay type: biochemical
T2 construct: endogenous in cells; host or cells: 4T1 mouse mammary tumor cells
T2 sequence (Q8R0Z2 1-598): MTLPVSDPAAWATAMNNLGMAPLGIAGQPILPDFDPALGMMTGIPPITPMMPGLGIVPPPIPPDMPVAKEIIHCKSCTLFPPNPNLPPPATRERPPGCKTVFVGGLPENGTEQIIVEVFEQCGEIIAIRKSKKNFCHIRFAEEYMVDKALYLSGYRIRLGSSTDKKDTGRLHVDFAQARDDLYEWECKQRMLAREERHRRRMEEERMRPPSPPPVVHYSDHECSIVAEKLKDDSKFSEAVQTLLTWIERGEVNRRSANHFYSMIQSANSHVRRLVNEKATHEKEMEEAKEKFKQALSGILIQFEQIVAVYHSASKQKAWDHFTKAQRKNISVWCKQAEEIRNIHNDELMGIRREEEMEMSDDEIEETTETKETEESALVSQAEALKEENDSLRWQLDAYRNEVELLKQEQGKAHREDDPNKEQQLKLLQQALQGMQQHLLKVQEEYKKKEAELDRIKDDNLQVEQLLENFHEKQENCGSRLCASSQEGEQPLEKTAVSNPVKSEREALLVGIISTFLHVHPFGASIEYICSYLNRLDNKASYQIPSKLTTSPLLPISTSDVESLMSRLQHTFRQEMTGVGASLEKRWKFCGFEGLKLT
Method: as §2, §1

[5] = target: T3, NADH oxidase (tNOX) of HeLa cells (Homo sapiens, UniProt Q16206); experiment: inhibition of NADH oxidase (tNOX) activity of HeLa cells; assay type: biochemical
T3 construct: endogenous in cells; host or cells: HeLa (ATCC CCL2)
T3 sequence (Q16206 1-610): T1 sequence (Q16206 1-610)
Method: as §2, §1

[6] = system: cancer cells; experiment: cancer cell growth and apoptosis under EGCg; assay type: cell-based
[7] = clearance of EGCg from the blood; conditions: in vivo
[8] = system: 4T1 mouse mammary carcinoma cells; experiment: tumor weight and metastases of 4T1 mouse mammary carcinoma cells in BALBc mice; assay type: in vivo
Method: Cells from monolayer culture were suspended in Hank's buffered salt solution and 1×10^6 cells were injected into the subscapular region in a volume of 0.1 ml.
Anti-metastatic drugs were administered in the dose/injection indicated intratumoral in 0.1 ml total volume on alternate days beginning after palpable tumor masses were discernible (approximately 7 days post implantation) for a total of 6 injections. Appropriate solvent and sham-injected controls were included. At […] post tumor implantations, mice were sacrificed and major organs (e.g., lung, liver, lymph nodes) were examined for evidence of metastases.

For `O=c1c(-c2ccc(O)cc2)coc2cc(O)cc(O)c12` [genestein], the “growth of HeLa cells” value ([1]; data not shown) was “inhibited”, the “interactions of genestein with EC or Tegreen” value ([1]; data not shown) was “additive” and the “inhibition of growth of HeLa cells” value ([1]; genestein at 10 μM) was 87%. For the same compound, the toxicity ([1]; genestein at 100 μM) was “toxic”, the “interactions with EGCg on growth of HeLa cells” value ([1]; higher genestein concentrations) was “no interactions were seen” and the “interactions with 1 μM EGCg on growth of HeLa cells” value ([1]; low genestein concentrations, data not shown) was “additive”. The “synergy with either vanillylamine or EGCg in the NADH oxidase assay” value [2] was “did not exhibit”.

For (−)-epigallocatechin gallate [EGCg], the “A580, % of no addition” value ([3]; final concentration 20 μM) was 58 % of no addition, the “inhibition of growth of HeLa cells” value ([1]; EGCg at 1 μM) was 12% and the “A580, % of no addition” value ([1]; 48 h, final concentration 20 μM) was 90 % of no addition. The “Growth, % of control” value ([1]; 48 h, EGCg 1:150) was 112 % of control, the “Growth, % of control” value ([1]; 72 h, EGCg 1:150) was 97 % of control and the EC50 ([4]; 4T1 cells grown in culture (Table 3), read-out: EC50(M), inhibition of tNOX activity) was 1e-08 M. The EC50 ([5]; HeLa cells grown in culture (Table 3), read-out: EC50(M), inhibition of tNOX activity) was 1e-07 M, the “growth of cancer cells” value ([6]; challenged with 10^−7 M EGCg every two hours during the day) was “inhibited” and the “reversibility of the effect on cancer cell growth” value ([6]; if the EGCg is removed, cancer cells resume normal rates of growth) was “reversible”. For the same compound, the “clearance from the blood” value [7] was “rapidly cleared from the blood and metabolized”.

With `COc1cc(CN)ccc1O` [Vanillylamine, 4-hydroxy-3-methoxybenzy amine hydrochloride] the “A580, % of no addition” value ([3]; final concentration 1 μM) was 144 % of no addition, the “A580, % of no addition” value ([1]; 48 h, final concentration 1 μM) was 128 % of no addition and the “Growth, % of control” value ([1]; 48 h, vanillylamine 1:150) was 130 % of control. The “Growth, % of control” value ([1]; 72 h, vanillylamine 1:150) was 120 % of control, the EC50 ([4]; 4T1, 1.5 × 10^6 cells (Table 2), read-out: EC50(M), inhibition of NADH oxidase) was 5e-09 M and the EC50 ([5]; HeLa, 1.5 × 10^6 cells (Table 2), read-out: EC50(M), inhibition of NADH oxidase) was 1e-09 M. The Tumor weight ([8]; BALBc mice, intratumoral on alternate days, 6 injections, sacrifice 15 days post implantation) was 0.50 ± 0.20, the “neurological discomfort and possible toxicity” value ([8]; mouse model) was “without the neurological discomfort and possible toxicity” and the “prevention of metastasis in a mouse model” value ([8]; mouse model) was “effective”. The “Tumor growth and metastatic spread” value ([8]; three animals) was “prevented”.

Source: patent publication US6759064B2, “Compositions based on vanilloid-catechin synergies for prevention and treatment of cancer” (Purdue Research Foundation, priority 2001, dated 2004)
